Reference: article PMC7979807, “A 37-amino acid loop in the Yarrowia lipolytica hexokinase impacts its activity and affinity and modulates gene expression” (Scientific Reports, 2021)

Columns and labels:
Test in all cases: Hexokinase Colorimetric Assay Kit, whole-cell extract, […] hexose
Type in all cases: biochemical
YlHxk1 [1] = target: T1, YlHxk1 (Yarrowia lipolytica, UniProt F2Z672, DEL155-182); details: relative to YlHxk1, absolute Km not given; extract 30 µg/mL protein in PBS pH 7.4; host hxk1 glk1
T1 construct: gene YALI0_B22308g; full-length, 534 residues, untagged; pTEF overexpression in Y. lipolytica Po1d hxk1 glk1; whole-cell extract; gene from W29 genomic DNA

ScHxk2 [2] = target: T2, ScHxk2 (Saccharomyces cerevisiae, UniProt P04807); details: relative to YlHxk1, absolute Km not given; extract 30 µg/mL protein in PBS pH 7.4; host hxk1 glk1
T2 construct: gene HXK2; full-length, untagged; pTEF overexpression in Y. lipolytica Po1d hxk1 glk1; whole-cell extract
T2 sequence (P04807 2-486): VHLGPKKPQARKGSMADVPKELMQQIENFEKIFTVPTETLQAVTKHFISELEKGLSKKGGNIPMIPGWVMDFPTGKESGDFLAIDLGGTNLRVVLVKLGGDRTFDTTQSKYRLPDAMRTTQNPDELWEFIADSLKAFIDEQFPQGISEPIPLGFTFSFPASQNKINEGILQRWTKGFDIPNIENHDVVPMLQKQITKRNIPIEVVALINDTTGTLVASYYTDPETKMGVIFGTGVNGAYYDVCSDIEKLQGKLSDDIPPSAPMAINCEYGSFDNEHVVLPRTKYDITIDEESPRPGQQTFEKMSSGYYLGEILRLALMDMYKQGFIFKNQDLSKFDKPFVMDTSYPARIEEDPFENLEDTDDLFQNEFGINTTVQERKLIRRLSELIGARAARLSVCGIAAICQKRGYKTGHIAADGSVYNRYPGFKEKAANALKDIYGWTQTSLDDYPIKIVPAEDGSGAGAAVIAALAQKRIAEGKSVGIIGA

YlHxk1 [3] = target: T3, YlHxk1 (Yarrowia lipolytica, UniProt F2Z672, DEL7-15); details: relative to YlHxk1, absolute Km not given; extract 30 µg/mL protein in PBS pH 7.4; host hxk1 glk1
T3 construct: gene YALI0_B22308g; full-length, 534 residues, untagged; pTEF overexpression in Y. lipolytica Po1d hxk1 glk1; whole-cell extract; gene from W29 genomic DNA

YlHxk1 [4] = target: T4, YlHxk1 (Yarrowia lipolytica, UniProt F2Z672, E500G); details: relative to YlHxk1, absolute Km not given; extract 30 µg/mL protein in PBS pH 7.4; host hxk1 glk1
T4 construct: gene YALI0_B22308g; full-length, 534 residues, untagged; pTEF overexpression in Y. lipolytica Po1d hxk1 glk1; whole-cell extract; gene from W29 genomic DNA

YlHxk1 [5] = target: T5, YlHxk1 (Yarrowia lipolytica, UniProt F2Z672); details: reference enzyme of the fold scale, no absolute Km of this study printed; otherwise same
T5 construct: gene YALI0_B22308g; full-length, 534 residues, untagged; pTEF overexpression in Y. lipolytica Po1d hxk1 glk1; whole-cell extract; gene from W29 genomic DNA
T5 sequence (F2Z672 1-534): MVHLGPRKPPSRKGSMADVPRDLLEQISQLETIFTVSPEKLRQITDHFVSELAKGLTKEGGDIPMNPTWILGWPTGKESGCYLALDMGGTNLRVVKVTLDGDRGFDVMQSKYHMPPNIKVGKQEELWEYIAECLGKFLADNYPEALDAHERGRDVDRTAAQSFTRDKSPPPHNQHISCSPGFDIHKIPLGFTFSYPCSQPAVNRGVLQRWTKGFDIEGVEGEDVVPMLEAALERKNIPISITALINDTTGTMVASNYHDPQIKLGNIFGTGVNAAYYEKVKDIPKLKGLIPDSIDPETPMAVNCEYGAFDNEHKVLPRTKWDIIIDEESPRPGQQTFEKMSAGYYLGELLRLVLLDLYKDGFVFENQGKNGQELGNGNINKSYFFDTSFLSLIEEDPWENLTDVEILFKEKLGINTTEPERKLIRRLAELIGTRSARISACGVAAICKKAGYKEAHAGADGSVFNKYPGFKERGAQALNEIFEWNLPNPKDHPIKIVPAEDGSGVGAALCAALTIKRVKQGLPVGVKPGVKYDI

YlHxk1 [6] = target: T4, YlHxk1; details: relative to YlHxk1, absolute Km not given; extract 30 µg/mL protein in PBS pH 7.4; host hxk1 glk1; remark: listed apart in the source
ScHxk2 [7] = target: T2, ScHxk2; details: relative to YlHxk1, absolute Km not given; extract 30 µg/mL protein in PBS pH 7.4; host hxk1 glk1; remark: listed apart in the source
YlHxk1 [8] = target: T3, YlHxk1; details: relative to YlHxk1, absolute Km not given; extract 30 µg/mL protein in PBS pH 7.4; host hxk1 glk1; remark: listed apart in the source
YlHxk1 [9] = target: T1, YlHxk1; details: relative to YlHxk1, absolute Km not given; extract 30 µg/mL protein in PBS pH 7.4; host hxk1 glk1; remark: listed apart in the source

T1 sequence (F2Z672 entry or part of it DEL155-182): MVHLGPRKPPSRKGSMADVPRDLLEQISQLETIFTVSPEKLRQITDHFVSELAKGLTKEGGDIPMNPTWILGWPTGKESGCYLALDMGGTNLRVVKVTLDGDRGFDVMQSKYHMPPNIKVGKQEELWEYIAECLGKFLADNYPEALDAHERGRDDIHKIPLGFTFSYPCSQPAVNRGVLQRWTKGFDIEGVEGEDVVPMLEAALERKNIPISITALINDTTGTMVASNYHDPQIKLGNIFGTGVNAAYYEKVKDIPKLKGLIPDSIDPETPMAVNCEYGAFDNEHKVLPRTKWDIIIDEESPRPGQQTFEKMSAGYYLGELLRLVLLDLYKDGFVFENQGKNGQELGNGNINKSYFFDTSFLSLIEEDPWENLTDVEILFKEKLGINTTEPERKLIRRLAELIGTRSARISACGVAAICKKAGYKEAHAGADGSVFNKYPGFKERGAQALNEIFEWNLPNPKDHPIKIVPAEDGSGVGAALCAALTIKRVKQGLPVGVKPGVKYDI
T4 sequence (F2Z672 entry or part of it E500G): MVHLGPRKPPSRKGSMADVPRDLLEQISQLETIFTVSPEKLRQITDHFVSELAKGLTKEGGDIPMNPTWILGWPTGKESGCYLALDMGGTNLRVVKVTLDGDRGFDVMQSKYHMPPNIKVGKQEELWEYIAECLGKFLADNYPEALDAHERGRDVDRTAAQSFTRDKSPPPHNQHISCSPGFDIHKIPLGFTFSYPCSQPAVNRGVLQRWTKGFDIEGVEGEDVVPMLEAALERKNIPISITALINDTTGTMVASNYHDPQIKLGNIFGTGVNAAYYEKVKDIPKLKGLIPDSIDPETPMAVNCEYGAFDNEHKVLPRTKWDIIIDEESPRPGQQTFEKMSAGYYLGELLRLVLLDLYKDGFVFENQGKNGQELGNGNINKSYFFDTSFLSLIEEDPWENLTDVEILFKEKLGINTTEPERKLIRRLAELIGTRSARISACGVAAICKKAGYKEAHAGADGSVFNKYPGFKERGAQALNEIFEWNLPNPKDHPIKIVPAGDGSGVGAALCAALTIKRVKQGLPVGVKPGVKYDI
T3 sequence (F2Z672 entry or part of it DEL7-15): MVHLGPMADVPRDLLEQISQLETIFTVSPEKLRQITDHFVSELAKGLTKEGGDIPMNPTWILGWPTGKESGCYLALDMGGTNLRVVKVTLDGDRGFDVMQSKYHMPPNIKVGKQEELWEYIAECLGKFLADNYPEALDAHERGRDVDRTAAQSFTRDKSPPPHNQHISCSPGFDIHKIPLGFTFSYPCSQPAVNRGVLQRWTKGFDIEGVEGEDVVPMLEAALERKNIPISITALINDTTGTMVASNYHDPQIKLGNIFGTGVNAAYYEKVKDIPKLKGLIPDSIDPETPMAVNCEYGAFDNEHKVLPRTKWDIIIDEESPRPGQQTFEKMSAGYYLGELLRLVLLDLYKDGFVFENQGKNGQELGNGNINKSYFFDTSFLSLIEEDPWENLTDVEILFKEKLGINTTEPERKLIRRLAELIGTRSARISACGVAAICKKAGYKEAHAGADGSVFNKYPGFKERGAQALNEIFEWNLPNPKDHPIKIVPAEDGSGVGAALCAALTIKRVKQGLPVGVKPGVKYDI

Row | hexokinase activity with 20 mM fructose, relative to YlHxk1 (YlHxk1 [1]) | relative hexokinase activity with 20 mM fructose (ScHxk2 [2]) | relative hexokinase activity on 20 mM fructose (YlHxk1 [3]) | relative hexokinase activity at 20 mM fructose (YlHxk1 [4]) | 20 mM glucose (YlHxk1 [5]) | relative hexokinase activity at 20 mM glucose (YlHxk1 [6]) | 20 mM glucose (ScHxk2 [7]) | 20 mM glucose (YlHxk1 [8]) | 20 mM glucose (YlHxk1 [9]) | SMILES
1 | 2.80 ± 0.28 fold vs YlHxk1 | 8.00 ± 0.76 fold vs YlHxk1 | 3.98 ± 0.67 fold vs YlHxk1 | 0.53 ± 0.15 fold vs YlHxk1 | 1.00 fold vs YlHxk1 | – | – | – | – | OCC1(O)OC[C@@H](O)[C@@H](O)[C@@H]1O (stereo partly shown) [fructose]
2 | – | – | – | – | 1.00 fold vs YlHxk1 | 2.50 ± 0.24 fold vs YlHxk1 | 1.22 ± 0.16 fold vs YlHxk1 | 0.18 ± 0.03 fold vs YlHxk1 | 2.05 ± 0.32 fold vs YlHxk1 | OC[C@H]1OC(O)[C@H](O)[C@@H](O)[C@@H]1O (stereo partly shown) [glucose]
